Patent US20070141158A1, “Amphiphilic heparin derivative formed by coupling a heparin with a bile acid” (ETHYPHARM, priority 2003, published 2007)

Assay: Incorporation (solubilization) of hydrophobic active ingredients into aqueous solution of heparin hydrophobized with cholic acid (HEP19CHO), dissolution method
Format: physicochemical
Conditions: for increase of quantity in solution: HEP19CHO (Cp=8.6 mg/ml) after 6 days of incorporation, versus water (FIG. 4)
Description: An example of a method of incorporation by direct dissolution is described below. 30 mg of hydrophobized heparin are introduced into a tube and 3 ml of distilled water are added thereto. After dissolution, a large excess of active ingredient (15 to 30 mg) is introduced into the mixture.
A phase of stirring the mixture obtained is carried out by means of a magnetic stirrer bar for several days. The mixture is then centrifuged and the supernatant is passed through a 0.45 μm filter. The quantity of active ingredient solubilized in the solutions of hydrophobized heparin may be determined by UV/visible spectroscopy or by HPLC.
The nonsolubilized active ingredient is removed after filtration of the solutions on a membrane having a porosity of 0.45 μm. The quantity of active ingredient in solution is then determined. Having determined the quantities solubilized in water and those dissolved in the hydrophobic domains, it is then possible to calculate a partition coefficient hydrophobic domains/water which is called Log P′ by analogy with Log P.
Indeed, the relative solubility of molecules between an oily phase and an aqueous phase is described by the partition coefficient P which represents the distribution of the molecules between two solvents, generally water and octanol. The use of its logarithm, log P, is often preferred. […] Likewise for Log P′ which expresses the ratio of the solubilities of the active agent in water and in the solution of hydrophobized heparin.
The incorporation of active ingredients was essentially carried out by the dissolution method. In this method, the compound to be incorporated is placed in solid form in a tube containing water or a colloidal solution of hydrophobized heparin, at the concentration Cp (mg/ml).
The mixing is performed with stirring at room temperature for various times. The compound to be incorporated remains at saturating concentration in the medium. At the end of the incorporation period, the tubes are subjected to a centrifugation step and the supernatants are filtered on 0.45 μm filters and assayed. Control solutions (water or nonhydrophobized heparin) are treated in the same manner.
The quantity of active ingredient incorporated into the various media is quantified by HPLC and/or by measuring the UV absorbance.
Thus, the incorporation is expressed in milligram of active ingredient per gram of polymer (mg/g P) or in micromole of active ingredient per gram of polymer (μmol/g P). This incorporation level is calculated by taking the ratio between the concentration of the active ingredient in solution and the concentration of the polymer. […] The difference in concentration of active ingredients in water and in a solution of hydrophobized heparin represents the quantity of active ingredient effectively present in hydrophobic micro-domains formed by the grouping together of cholic acid residues.

Row | Compound | level of incorporation into the hydrophobic domains (HEP19CHO 8 mg/ml, after 3 days) | increase of quantity in solution | gain in solubility relative to water (HEP19CHO calcium salt, 8 mg/ml, after 3 days (FIG. 3)) | concentration of carbamazepine present in the hydrophobic domains (HEP19CHO solution 8 mg/ml, after 3 days, HEP19CHO solution minus aqueous phase) | affinity for the hydrophobic domains (among the molecules tested) (HEP19CHO, Table 5 molecules) | times as soluble in a solution of hydrophobized heparin as in water (HEP19CHO solution versus water)
1 | NC(=O)N1c2ccccc2C=Cc2ccccc21 [Carbamazepine] | 70 mg/g P | increased ten fold | exceeds 500% | 560 µg/mL | highest affinity for the hydrophobic domains | 
2 | CCC(C)n1ncn(-c2ccc(N3CCN(c4ccc(OCC5COC(Cn6cncn6)(c6ccc(Cl)cc6Cl)O5)cc4)CC3)cc2)c1=O (stereo not shown) [Itraconazole] |  | > 2000 fold |  |  |  | more than 2000 times
